Paper PMC9090415, “Discovery of small molecule inhibitors of Plasmodium falciparum apicoplast DNA polymerase” (Journal of Enzyme Inhibition and Medicinal Chemistry, 2022)

Target: P. falciparum apicoplast DNA polymerase (Pf-apPOL) (Plasmodium falciparum, UniProt Q8ILY1)
Assay: Fluorescence-based high-throughput DNA polymerase assay (molecular beacon), primary screen and dose-response;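 on % inhibition ApPOL 90': test concentration in µM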;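 on % inhibition apPOL 180': test concentration in µM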
Type: biochemical
How it was run: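 Single-point screening used 10 µM compound with 20 nM polymerase, 20 nM hairpin substrate and 6 µM dNTPs for 90 min at 25 °C. Confirmatory titrations (2.5–80 µM) followed fluorescence at three times, and IC50 was derived from a fit including a cooperativity term n.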

P. falciparum apicoplast DNA polymerase (Pf-apPOL), sequence (Q8ILY1 entry or part of it): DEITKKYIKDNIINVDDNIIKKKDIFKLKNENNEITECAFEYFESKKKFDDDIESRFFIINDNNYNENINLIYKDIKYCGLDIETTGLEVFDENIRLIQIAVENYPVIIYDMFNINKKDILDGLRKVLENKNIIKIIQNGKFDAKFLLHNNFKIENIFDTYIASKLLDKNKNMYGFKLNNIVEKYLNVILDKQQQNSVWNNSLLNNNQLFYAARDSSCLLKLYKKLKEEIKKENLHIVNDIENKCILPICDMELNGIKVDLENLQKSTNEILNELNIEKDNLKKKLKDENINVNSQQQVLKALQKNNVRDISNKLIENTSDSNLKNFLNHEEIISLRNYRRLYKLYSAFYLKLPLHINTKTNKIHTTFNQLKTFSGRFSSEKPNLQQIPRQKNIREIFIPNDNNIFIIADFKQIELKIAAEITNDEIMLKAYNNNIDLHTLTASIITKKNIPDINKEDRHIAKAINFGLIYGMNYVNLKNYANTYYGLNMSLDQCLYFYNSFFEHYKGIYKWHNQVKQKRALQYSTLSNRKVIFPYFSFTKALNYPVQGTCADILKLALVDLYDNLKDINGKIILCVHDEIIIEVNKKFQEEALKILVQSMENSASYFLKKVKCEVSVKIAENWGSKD

O=C(O)C(=O)Nc1nc(-c2ccc3c(c2)OCCO3)cs1 [Molecule 82, OC(=O)C(=O)Nc1scc(n1)c1ccc2c(c1)OCCO2]
DNA Pol (186 hits, value of the hit list (primary screen); unit not given; 90 min, 10 µM): 43 | % inhibition Apo pol 10' (DRC-1; 10'; concentration 2.5): 23.4738% | % inhibition Apo pol 10' (DRC-1; 10'; concentration 5): 27.4589% | % inhibition Apo pol 10' (DRC-1; 10'; concentration 10): 36.2592% | % inhibition Apo pol 10' (DRC-1; 10'; concentration 20): 39.5068% | % inhibition Apo pol 10' (DRC-1; 10'; concentration 40): 47.7699% | % inhibition Apo pol 10' (DRC-1; 10'; concentration 80): 63.5129% | % inhibition Apol 90' (DRC-1; 90'; concentration 2.5): 8.772% | % inhibition Apol 90' (DRC-1; 90'; concentration 5): 11.5991% | % inhibition Apol 90' (DRC-1; 90'; concentration 10): 21.2379% | % inhibition Apol 90' (DRC-1; 90'; concentration 20): 24.9603% | % inhibition Apol 90' (DRC-1; 90'; concentration 40): 33.8146% | % inhibition Apol 90' (DRC-1; 90'; concentration 80): 46.367% | % inhibition apPOL 180' (DRC-1; 180'; concentration 2.5): 0.4032% | % inhibition apPOL 180' (DRC-1; 180'; concentration 5): 2.14% | % inhibition apPOL 180' (DRC-1; 180'; concentration 10): 10.4775% | % inhibition apPOL 180' (DRC-1; 180'; concentration 20): 13.4628% | % inhibition apPOL 180' (DRC-1; 180'; concentration 40): 21.1866% | % inhibition apPOL 180' (DRC-1; 180'; concentration 80): 32.4786% | % inhibition Apo pol 5' (DRC-2, 5', concentration 2.5): 23% | % inhibition Apo pol 5' (DRC-2, 5', concentration 5): 17% | % inhibition Apo pol 5' (DRC-2, 5', concentration 10): 25% | % inhibition Apo pol 5' (DRC-2, 5', concentration 20): 30% | % inhibition Apo pol 5' (DRC-2, 5', concentration 40): 34% | % inhibition Apo pol 5' (DRC-2, 5', concentration 80): 46% | % inhibition Apol 40' (DRC-2, 40', concentration 2.5): 13% | % inhibition Apol 40' (DRC-2, 40', concentration 5): 15% | % inhibition Apol 40' (DRC-2, 40', concentration 10): 24% | % inhibition Apol 40' (DRC-2, 40', concentration 20): 28% | % inhibition Apol 40' (DRC-2, 40', concentration 40): 37% | % inhibition Apol 40' (DRC-2, 40', concentration 80): 46% | % inhibition ApPOL 90' (DRC-2, 90', concentration 2.5): 8% | % inhibition ApPOL 90' (DRC-2, 90', concentration 5): 14% | % inhibition ApPOL 90' (DRC-2, 90', concentration 10): 23% | % inhibition ApPOL 90' (DRC-2, 90', concentration 20): 26% | % inhibition ApPOL 90' (DRC-2, 90', concentration 40): 34% | % inhibition ApPOL 90' (DRC-2, 90', concentration 80): 43% | % inhibition apPOL 180' (DRC-2, 180', concentration 2.5): 0.181% | % inhibition apPOL 180' (DRC-2, 180', concentration 5): 9% | % inhibition apPOL 180' (DRC-2, 180', concentration 10): 15% | % inhibition apPOL 180' (DRC-2, 180', concentration 20): 18% | % inhibition apPOL 180' (DRC-2, 180', concentration 40): 25% | % inhibition apPOL 180' (DRC-2, 180', concentration 80): 34% | % inhibition Apo pol 5' (DRC-2; 5'; concentration 2.5): 23% | % inhibition Apo pol 5' (DRC-2; 5'; concentration 10): 25% | % inhibition Apo pol 5' (DRC-2; 5'; concentration 40): 34% | % inhibition Apo pol 5' (DRC-2; 5'; concentration 80): 46% | % inhibition Apol 40' (DRC-2; 40'; concentration 5): 15% | % inhibition Apol 40' (DRC-2; 40'; concentration 80): 46% | % inhibition ApPOL 90' (DRC-2; 90'; concentration 10): 23% | % inhibition ApPOL 90' (DRC-2; 90'; concentration 40): 34% | % inhibition apPOL 180' (DRC-2; 180'; concentration 10): 15% | % inhibition apPOL 180' (DRC-2; 180'; concentration 40): 25% | % inhibition apPOL 180' (DRC-2; 180'; concentration 80): 34% | DNA Pol (primary screen value, 'DNA Pol' only; 90 min, 10 µM): 43

Cc1cc(C)c2c(O)nc(SCC(=O)c3ccc(O)c(O)c3)nc2n1 [Molecule 88]
IC50 (supplemental file 2, sheet IC50 nontoxic compounds; Pf-apPOL): < 2500 nM
